From US20240360178A1, “MACROCYCLIC IMMUNOMODULATORS” (Bristol-Myers Squibb Company, priority 2021, published 2024)
Starred links: 1 amine or outer side, 2 acyl side, 3 side chain; linkers in the order of their positions; H or OH if unused. Positions of bridges follow the written chain, without caps; N, C: chain ends. Non-standard residues stand in square brackets, D forms with d. Residues, ends and D or L forms follow the SMILES beside them. ξ: configuration not given here. *: point of attachment. Phe(4-CH2NH2) = NCc1ccc(C[C@H](N)C(=O)O)cc1; Bip = N[C@@H](Cc1ccc(-c2ccccc2)cc1)C(=O)O; Phe(3-Me) = Cc1cccc(C[C@H](N)C(=O)O)c1; NMeF = CN[C@@H](Cc1ccccc1)C(=O)O; X2 = O=C([C@H]1COCCN1[*:1])[*:2]; dPip = O=C(O)[C@H]1CCCCN1; Carboxymethyl = O=C(O)C*; NMeA = CN[C@@H](C)C(=O)O; ξF = NC(Cc1ccccc1)C(=O)O; Sar = CNCC(=O)O

Molecular target: T1, human PD-1 (Jurkat-PD-1 cells) / PE-labeled human PD-L1-Ig (Homo sapiens, UniProt Q15116)
T1 construct: expressed in transfected cells; host or cells: Jurkat cell line over-expressing human PD-1
Experiment: Jurkat-PD-1 Cell Binding High-Content Screening Assay (CBA); Jurkat hPD1-PDL1 assay
Conditions: Jurkat cell line over-expressing human PD-1; PE-labeled PD-L1-Ig 20 nM final; compound incubated 2 hours at 37° C.; read-out: Jurkat HPD1-PDL1 IC50
Procedure: The ability of the compounds of formula (I) to bind to PD-1 was investigated using a Jurkat-PD-1 Cell Binding High-Content Screening Assay.
Jurkat-PD-1 Cell Binding High-Content Screening Assay (CBA)
Phycoerythrin (PE) was covalently linked to the Ig epitope tag of human PD-L1-Ig and fluorescently-labeled PD-L1-Ig was used for binding studies with a Jurkat cell line over-expressing human PD-1 (Jurkat-PD-1). Briefly, 8×10^3 Jurkat-hPD-1 cells were seeded into 384 well plates in 20 μL of DMEM supplemented with 10% fetal calf serum. 100 nL of compound was added to cells followed by incubation at 37° C. for 2 hours. Then, 5 μL of PE-labeled PD-L1-Ig (20 nM final), diluted in DMEM supplemented with 10% fetal calf serum. […] Data was collected and processed using a Cell Insight NXT High Content Imager and associated software.

T1 sequence (Q15116 25-288): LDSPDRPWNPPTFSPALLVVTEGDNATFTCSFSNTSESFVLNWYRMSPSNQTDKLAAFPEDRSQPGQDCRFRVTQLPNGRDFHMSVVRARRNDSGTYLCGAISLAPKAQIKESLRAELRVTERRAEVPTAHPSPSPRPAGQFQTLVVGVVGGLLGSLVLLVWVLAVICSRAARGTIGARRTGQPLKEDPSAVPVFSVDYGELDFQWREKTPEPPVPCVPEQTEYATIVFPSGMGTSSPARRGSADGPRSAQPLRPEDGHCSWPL

Row | SMILES | IC50 [µM]
1 | CC(C)C[C@@H]1NC(=O)[C@H](CCCNC(=N)N)NC(=O)[C@H](Cc2ccccc2)N(C)C(=O)[C@H](C)N(C)C(=O)[C@H](CCCNC(=N)N)NC(=O)[C@H](Cc2ccc(-c3ccccc3)cc2)NC(=O)[C@H](C(C)C)NC(=O)[C@H](Cc2c[nH]c3ccccc23)NC(=O)[C@H](CC(=O)O)NC(=O)[C@H](Cc2ccc(O)cc2)NC(=O)[C@H](CC(N)=O)NC(=O)CSC[C@@H](C(=O)NCC(N)=O)NC(=O)[C@H](CO)NC(=O)[C@H](C(C)C)NC1=O [Example 1032] ({CH2CO}-NYDWV[Bip]R[NMeA][NMeF]RLVSCG-NH2; thioether N-14) | 0.06
2 | CC(C)C[C@@H]1NC(=O)[C@H](Cc2c[nH]c3ccccc23)NC(=O)[C@H](CC(=O)O)NC(=O)[C@H](Cc2ccc(O)cc2)NC(=O)[C@H](Cc2ccccc2)NC(=O)CSC[C@@H](C(=O)NCC(N)=O)NC(=O)[C@H](CO)NC(=O)[C@H](C(C)C)NC(=O)[C@H](CC(C)C)NC(=O)[C@H](CC(N)=O)NC(=O)[C@H]2CCCN2C(=O)[C@H](C)N(C)C(=O)[C@H](C(C)C)NC(=O)[C@H](Cc2ccc(-c3ccccc3)cc2)NC1=O [Example 1035] ({CH2CO}-FYDWL[Bip]V[NMeA][dP]NLVSCG-NH2; thioether N-14) | 0.06
3 | CC(C)C[C@@H]1NC(=O)[C@H](Cc2c[nH]c3ccccc23)NC(=O)[C@H](CC(=O)O)NC(=O)[C@H](Cc2ccc(O)cc2)NC(=O)[C@H](Cc2ccccc2)NC(=O)CSC[C@@H](C(=O)N[C@@H](C)C(N)=O)NC(=O)[C@H](CO)NC(=O)[C@H](C(C)C)NC(=O)[C@H](CC(C)C)NC(=O)[C@H](CCCCN)NC(=O)[C@H]2CCCN2C(=O)[C@H](C)N(C)C(=O)[C@H](CCC(=O)O)NC(=O)[C@H](Cc2ccc(-c3ccccc3)cc2)NC1=O [Example 1036] ({CH2CO}-FYDWL[Bip]E[NMeA][dP]KLVSCA-NH2; thioether N-14) | 0.06
4 | CC(C)C[C@@H]1NC(=O)[C@H](Cc2c[nH]c3ccccc23)NC(=O)[C@H](CC(=O)O)NC(=O)[C@H](Cc2ccc(O)cc2)NC(=O)[C@H](Cc2ccccc2)NC(=O)CSC[C@@H](C(=O)N[C@@H](C)C(N)=O)NC(=O)[C@H](CO)NC(=O)[C@H](C(C)C)NC(=O)[C@H](CC(C)C)NC(=O)[C@H](CC(N)=O)NC(=O)[C@H]2CCCN2C(=O)[C@H](C)N(C)C(=O)[C@H](CCC(=O)O)NC(=O)[C@H](Cc2ccc(-c3ccccc3)cc2)NC1=O [Example 1039] ({CH2CO}-FYDWL[Bip]E[NMeA][dP]NLVSCA-NH2; thioether N-14) | 0.07
5 | CC(C)C[C@@H]1NC(=O)[C@H](Cc2c[nH]c3ccccc23)NC(=O)[C@H](CC(=O)O)NC(=O)[C@H](Cc2ccc(OCC(=O)O)cc2)NC(=O)[C@H](CC(N)=O)NC(=O)CSC[C@@H](C(=O)N[C@@H](C)C(N)=O)NC(=O)[C@H](CO)NC(=O)[C@H](C(C)C)NC(=O)[C@H](CC(C)C)NC(=O)[C@H](CC(N)=O)NC(=O)[C@H]2CCCN2C(=O)[C@H](C)N(C)C(=O)[C@H](C(C)C)NC(=O)[C@H](Cc2ccc(-c3ccccc3)cc2)NC1=O [Example 1042] ({CH2CO}-NY(Carboxymethyl)DWL[Bip]V[NMeA][dP]NLVSCA-NH2; thioether N-14) | 0.07
6 | CC(C)C[C@@H]1NC(=O)[C@H](Cc2c[nH]c3ccccc23)NC(=O)[C@H](CC(=O)O)NC(=O)[C@H](Cc2ccc(O)cc2)NC(=O)C(Cc2ccccc2)NC(=O)CSC[C@@H](C(=O)NCC(N)=O)NC(=O)[C@@H](CO)NC(=O)[C@H](C(C)C)NC(=O)[C@H](CC(C)C)NC(=O)[C@H](CC(N)=O)NC(=O)CN(C)C(=O)[C@H](C)N(C)C(=O)[C@H](C(C)C)NC(=O)[C@H](Cc2ccc(-c3ccccc3)cc2)NC1=O (stereo partly drawn) [Example 1043] ({CH2CO}-[ξF]YDWL[Bip]V[NMeA][Sar]NLV[dS]CG-NH2; thioether N-14) | 0.08

The next lines start with the values.

Row | IC50 [µM] | SMILES
7 | 0.06 | Cc1cccc(C[C@@H]2NC(=O)[C@H](Cc3ccccc3)NC(=O)CSC[C@@H](C(=O)N[C@@H](C)C(N)=O)NC(=O)[C@H](CO)NC(=O)[C@H](C(C)C)NC(=O)[C@H](CC(C)C)NC(=O)[C@H](CC(N)=O)NC(=O)[C@H]3CCCN3C(=O)[C@H](C)N(C)C(=O)[C@H](C(C)C)NC(=O)[C@H](Cc3ccc(-c4ccccc4)cc3)NC(=O)[C@H](CC(C)C)NC(=O)[C@H](Cc3c[nH]c4ccccc34)NC(=O)[C@H](CC(=O)O)NC2=O)c1 [Example 1033] ({CH2CO}-F[Phe(3-Me)]DWL[Bip]V[NMeA][dP]NLVSCA-NH2; thioether N-14)
8 | 0.06 | CC(C)C[C@@H]1NC(=O)[C@H](Cc2c[nH]c3ccccc23)NC(=O)[C@H](CC(=O)O)NC(=O)[C@H](Cc2ccc(O)cc2)NC(=O)[C@H](Cc2ccccc2)NC(=O)CSC[C@@H](C(=O)N[C@@H](C)C(N)=O)NC(=O)[C@H](CO)NC(=O)[C@H](C(C)C)NC(=O)[C@H](CC(C)C)NC(=O)[C@H](CC(N)=O)NC(=O)[C@H]2CCCN2C(=O)[C@H](C)N(C)C(=O)[C@H](C(C)C)NC(=O)[C@H](Cc2ccc(-c3ccccc3)cc2)NC1=O [Example 1034] ({CH2CO}-FYDWL[Bip]V[NMeA][dP]NLVSCA-NH2; thioether N-14)
9 | 0.07 | CC(C)C[C@@H]1NC(=O)[C@H](Cc2c[nH]c3ccccc23)NC(=O)[C@H](CC(=O)O)NC(=O)[C@H](Cc2ccc(O)cc2)NC(=O)[C@H](Cc2ccccc2)NC(=O)CSC[C@@H](C(=O)N[C@@H](C)C(N)=O)NC(=O)[C@H](CO)NC(=O)[C@H](C(C)C)NC(=O)[C@H](CC(C)C)NC(=O)[C@H](CCC(N)=O)NC(=O)[C@H]2CCCN2C(=O)[C@H](C)N(C)C(=O)[C@H](C(C)C)NC(=O)[C@H](Cc2ccc(-c3ccccc3)cc2)NC1=O [Example 1037] ({CH2CO}-FYDWL[Bip]V[NMeA][dP]QLVSCA-NH2; thioether N-14)
10 | 0.07 | CC(C)C[C@@H]1NC(=O)[C@H](Cc2c[nH]c3ccccc23)NC(=O)[C@H](CC(=O)O)NC(=O)[C@H](Cc2ccc(O)cc2)NC(=O)[C@H](Cc2ccccc2)NC(=O)CSC[C@@H](C(=O)N[C@@H](C)C(N)=O)NC(=O)[C@H](CO)NC(=O)[C@H](C(C)C)NC(=O)[C@H](CC(C)C)NC(=O)[C@H](CC(N)=O)NC(=O)[C@H]2CCCCN2C(=O)[C@H](C)N(C)C(=O)[C@H](C(C)C)NC(=O)[C@H](Cc2ccc(-c3ccccc3)cc2)NC1=O [Example 1038] ({CH2CO}-FYDWL[Bip]V[NMeA][dPip]NLVSCA-NH2; thioether N-14)
11 | 0.07 | CC(C)C[C@@H]1NC(=O)[C@H](Cc2c[nH]c3ccccc23)NC(=O)[C@H](CC(=O)O)NC(=O)[C@H](Cc2ccc(CN)cc2)NC(=O)[C@H](Cc2ccccc2)NC(=O)CSC[C@@H](C(=O)N[C@@H](C)C(N)=O)NC(=O)[C@H](CO)NC(=O)[C@H](C(C)C)NC(=O)[C@H](CC(C)C)NC(=O)[C@H](CC(N)=O)NC(=O)[C@H]2CCCN2C(=O)[C@H](C)N(C)C(=O)[C@H](C(C)C)NC(=O)[C@H](Cc2ccc(-c3ccccc3)cc2)NC1=O [Example 1040] ({CH2CO}-F[Phe(4-CH2NH2)]DWL[Bip]V[NMeA][dP]NLVSCA-NH2; thioether N-14)
12 | 0.08 | CC(C)C[C@@H]1NC(=O)[C@H](Cc2c[nH]c3ccccc23)NC(=O)[C@H](CC(=O)O)NC(=O)[C@H](Cc2ccc(O)cc2)NC(=O)[C@H](Cc2ccccc2)NC(=O)CSC[C@@H](C(=O)N[C@@H](C)C(N)=O)NC(=O)[C@H](CO)NC(=O)[C@H](C(C)C)NC(=O)[C@H](CC(C)C)NC(=O)[C@H](CC(N)=O)NC(=O)[C@H]2COCCN2C(=O)[C@H](C)N(C)C(=O)[C@H](C(C)C)NC(=O)[C@H](Cc2ccc(-c3ccccc3)cc2)NC1=O [Example 1044] ({CH2CO}-FYDWL[Bip]V[NMeA][X2]NLVSCA-NH2; thioether N-14)
